# What was measured:
# [1] = test system: rhythmic bladder voiding contractions; assay: Volume-induced rhythmic bladder voiding contractions in anaesthetized rats; type: in vivo, rat; conditions: for Bladder quiescence (min ± S.E.): 60 min observation; for ED10 min (dose inducing a 10 min absence of bladder contractions) / Potency in inhibiting bladder voiding contractions (ED10min) compared with morphine: i.v.; for ED10 min (dose inducing a 10 min absence of bladder contractions): linear regression analysis; for Potency in inhibiting bladder voiding contractions (ED10min) compared with morphine: relative to morphine
# Procedure: In this method, the urinary bladder is catheterized through the external urethra with a polyethylene tubing filled with physiological saline. The external urethra is then ligated and connected to a pressure recording device. […] Test compounds are then administered intravenously and their effect evaluated for the following 60 min.
# The animals were housed with free access to food and water and maintained on a 12 h alternating light-dark cycle at 22-24° C. for at least one week, except during the experiment. […] The catheter was then tied in place with a ligature around the external urethral orifice and connected to a conventional pressure transducer (Statham P23 ID/P23 XL). […] The bladder was then filled via the recording catheter with incremental volumes of warm (37° C.) saline until reflex bladder voiding contractions occurred (usually upon addition of 0.8-1.5 ml saline).
# Bioactivity was assessed in individual animals (using 6-10 rats per dose) by measuring the duration of bladder quiescence (i.e., the duration of time during which no contractions occurred) over a 60 min period.
# [2] = test system: detrusor instability; conditions: cited from earlier work; for Effect in patients with detrusor instability: double-blind controlled studies; for Gastrointestinal side effects: patients with detrusor instability
# [3] = test system: bladder contractions elicited by arachidonic acid; conditions: arachidonic acid on serosal surface of bladder; cited from earlier work
# [4] = test system: isolated rat bladder strips; conditions: 1×10^−4M, 40 mM potassium; cited from earlier work
# [5] = test system: bladder reflexes; conditions: following surgery or experimentally-induced inflammation; cited from earlier work
smiles,measurement,setting,value
CN1CC[C@]23c4c5ccc(O)c4O[C@H]2[C@@H](O)C=C[C@H]3[C@H]1C5 [Morphine],Bladder quiescence (min ± S.E.),[1]; 0.01 mg/kg i.v.,2.76 ± 0.93 min
same,Bladder quiescence (min ± S.E.),[1]; 0.03 mg/kg i.v.,6.89 ± 2.11 min
same,Bladder quiescence (min ± S.E.),[1]; 0.1 mg/kg i.v.,13.83 ± 2.40 min
same,Bladder quiescence (min ± S.E.),[1]; 0.3 mg/kg i.v.,18.17 ± 3.60 min
same,ED10 min (dose inducing a 10 min absence of bladder contractions),[1],ED10 min = 0.050 mg/kg
CC(C(=O)O)c1ccc(-c2ccccc2)c(F)c1 (centres unmarked) [flurbiprofen],Effect in patients with detrusor instability,[2],favorable effects
same,Gastrointestinal side effects,[2],high incidence of gastrointestinal side effects
C[C@H](C(=O)O)c1cccc(C(=O)c2ccccc2)c1 [dexketoprofen],Effect on bladder contractions elicited by arachidonic acid,[3],blocked
CS(=O)(=O)Nc1ccc([N+](=O)[O-])cc1Oc1ccccc1 [nimesulide],Inhibition of contractility,[4],42%
CS(=O)(=O)c1ccc(C2=C(c3ccccc3)C(=O)OC2)cc1 [Compound C],Bladder quiescence (min ± S.E.),[1]; 0.03 mg/kg i.v.,3.75 ± 0.96 min
same,Bladder quiescence (min ± S.E.),[1]; 0.1 mg/kg i.v.,4.85 ± 1.80 min
same,Bladder quiescence (min ± S.E.),[1]; 0.3 mg/kg i.v.,16.44 ± 6.13 min
same,ED10 min (dose inducing a 10 min absence of bladder contractions),[1],ED10 min = 0.135 mg/kg
same,Potency in inhibiting bladder voiding contractions (ED10min) compared with morphine,[1],slightly lower
CS(=O)(=O)Nc1ccc([N+](=O)[O-])cc1OC1CCCCC1 [NS-398],Effect on bladder reflexes,[5],normalized bladder reflexes
COc1ccc2c(c1)c(CC(=O)O)c(C)n2C(=O)c1ccc(Cl)cc1 [Indomethacin],Bladder quiescence (min ± S.E.),[1]; 0.3 mg/kg i.v.,4.39 ± 1.08 min
same,Bladder quiescence (min ± S.E.),[1]; 1.0 mg/kg i.v.,7.91 ± 1.79 min
same,Bladder quiescence (min ± S.E.),[1]; 3.0 mg/kg i.v.,35.00 ± 5.78 min
same,ED10 min (dose inducing a 10 min absence of bladder contractions),[1],ED10 min = 0.652 mg/kg
same,Effect in patients with detrusor instability,[2],favorable effects
same,Gastrointestinal side effects,[2],high incidence of gastrointestinal side effects
Cc1ccc(-c2cc(C(F)(F)F)nn2-c2ccc(S(N)(=O)=O)cc2)cc1 [Compound B],Bladder quiescence (min ± S.E.),[1]; 0.01 mg/kg i.v.,4.05 ± 0.68 min
same,Bladder quiescence (min ± S.E.),[1]; 0.1 mg/kg i.v.,10.53 ± 2.04 min
same,Bladder quiescence (min ± S.E.),[1]; 1.0 mg/kg i.v.,28.35 ± 5.19 min
same,ED10 min (dose inducing a 10 min absence of bladder contractions),[1],ED10 min = 0.044 mg/kg
same,Potency in inhibiting bladder voiding contractions (ED10min) compared with morphine,[1],similar

# Source: patent publication US6440963B1, “Use of selective COX-2 inhibitors for the treatment of urinary incontinence” (Recordati S.A., Chemical and Pharmaceutical Company, priority 2001, dated 2002)
